From patent US20040180941A1, “3-(1-[3-(1,3-Benzothiazol-6-yl)propylcarbamoyl]cycloalkyl)propanoic acid derivatives as NEP inhibitors” (Pfizer Inc, priority 2003, published 2004)

Columns and labels:
[1] = target: T1, NEP (neutral endopeptidase EC.3.4.24.11), native enzyme isolated from kidneys (Homo sapiens, UniProt P08473); assay: Assay of NEP peptidase activity (fluorogenic peptide substrate), IC50 determination; assay type: biochemical; details: read-out: activity against NEP expressed as an IC50
T1 construct: NEP is isolated from kidneys following the method described by Kenny and Booth; from tissue
Experimental: Production of Native NEP Enzyme:
NEP is isolated from kidneys following the method described by Kenny and Booth (Booth, A. G. & Kenny, A. J. (1974) Biochem. J. 142, 575-581).
Assay of SEP or NEP Peptidase Activity
The peptidase activity of SEP or NEP is measured by monitoring its ability to proteolyse the synthetic peptide substrate Rhodamine green-Gly-Gly-dPhe-Leu-Arg-Arg-Val-Cys(QSY7)-βAla-NH2:
Reagents for the assay are first prepared as follows:
A substrate solution is made up by diluting a 2 mM/100% DMSO Rhodamine green-Gly-Gly-dPhe-Leu-Arg-Arg-Val-Cys(QSY7)-βAla-NH2 stock solution in 50 mM HEPES buffer pH7.4 (Sigma, UK) at a concentration of 2 μM.
An aliquot of SEP or NEP enzyme described above is thawed then diluted in 50 mM HEPES, pH7.4 containing 1 EDTA free protease inhibitor cocktail tablet (Roche Diagnostics, UK) per 25 ml. […]
(§1) In a black 384 well microtitre plate, 15 μl of enzyme solution is added to 15 μl of 4% DMSO solution. […] Following incubation a fluorescence measurement is taken (Ex485/Em538). BMG galaxy fluorescence reader (BMG Lab technologies, Offenberg, Germany).
(§2) The proteolytic activity of the enzyme corresponds to the fluorescence of the sample minus the fluorescence of the non-specific background blank.
(§3) A fluorescence measurement taken from 60 μl of product in a well on an identical microtitre plate may be taken. […]

[2] = target: T2, Recombinant SEP (soluble secreted endopeptidase) (Homo sapiens, UniProt Q495T6); assay: Assay of SEP peptidase activity (fluorogenic peptide substrate), IC50 determination; assay type: biochemical; details: ratio of SEP to NEP inhibition
T2 construct: made in house
T2 sequence (Q495T6 75-779 limits assumed): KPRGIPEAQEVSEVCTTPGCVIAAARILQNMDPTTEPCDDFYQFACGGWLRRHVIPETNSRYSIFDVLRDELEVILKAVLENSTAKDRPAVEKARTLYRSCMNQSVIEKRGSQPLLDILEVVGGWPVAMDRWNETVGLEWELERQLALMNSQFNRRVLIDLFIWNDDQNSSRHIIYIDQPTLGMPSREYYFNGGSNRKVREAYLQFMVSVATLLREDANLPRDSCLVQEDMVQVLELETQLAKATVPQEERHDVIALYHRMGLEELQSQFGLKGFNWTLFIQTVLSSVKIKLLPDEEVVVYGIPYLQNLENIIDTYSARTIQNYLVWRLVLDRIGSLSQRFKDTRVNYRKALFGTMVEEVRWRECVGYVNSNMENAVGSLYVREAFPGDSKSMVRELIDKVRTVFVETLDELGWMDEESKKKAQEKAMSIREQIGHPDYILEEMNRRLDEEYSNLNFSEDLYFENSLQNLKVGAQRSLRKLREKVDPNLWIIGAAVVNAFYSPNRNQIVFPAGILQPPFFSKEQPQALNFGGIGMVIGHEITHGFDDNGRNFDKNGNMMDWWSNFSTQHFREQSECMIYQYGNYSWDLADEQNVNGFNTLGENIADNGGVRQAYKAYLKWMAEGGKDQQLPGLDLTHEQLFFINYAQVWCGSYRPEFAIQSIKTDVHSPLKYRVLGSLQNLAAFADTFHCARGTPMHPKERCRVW
Experimental: Recombinant SEP enzyme is produced using one of two alternative methods:
Method 1: A culture of Chinese Hamster Ovary (CHO) cells is transfected with the plasmid NCIMB deposit number 41110 using the lipofectamine method as described in the lipofectamine reagent protocol (Invitrogen Ltd, Paisley, UK). The cell media is harvested at 24 or 48 hours post transfection, and cleared of cell debris by centrifugation at 3000 g for 5 min. The media is then dialyzed overnight at 4° C. against 50 mM HEPES pH7.4/10% glycerol, using a “slide a lyser” from Pierce and Warner, Chester UK. The dialyzed sample is then frozen in aliquots and stored under liquid nitrogen. […]
The peptidase activity of SEP or NEP is measured by monitoring its ability to proteolyse the synthetic peptide substrate Rhodamine green-Gly-Gly-dPhe-Leu-Arg-Arg-Val-Cys(QSY7)-βAla-NH2: […]
as §1, §2, §3

T1 sequence (P08473 whole entry): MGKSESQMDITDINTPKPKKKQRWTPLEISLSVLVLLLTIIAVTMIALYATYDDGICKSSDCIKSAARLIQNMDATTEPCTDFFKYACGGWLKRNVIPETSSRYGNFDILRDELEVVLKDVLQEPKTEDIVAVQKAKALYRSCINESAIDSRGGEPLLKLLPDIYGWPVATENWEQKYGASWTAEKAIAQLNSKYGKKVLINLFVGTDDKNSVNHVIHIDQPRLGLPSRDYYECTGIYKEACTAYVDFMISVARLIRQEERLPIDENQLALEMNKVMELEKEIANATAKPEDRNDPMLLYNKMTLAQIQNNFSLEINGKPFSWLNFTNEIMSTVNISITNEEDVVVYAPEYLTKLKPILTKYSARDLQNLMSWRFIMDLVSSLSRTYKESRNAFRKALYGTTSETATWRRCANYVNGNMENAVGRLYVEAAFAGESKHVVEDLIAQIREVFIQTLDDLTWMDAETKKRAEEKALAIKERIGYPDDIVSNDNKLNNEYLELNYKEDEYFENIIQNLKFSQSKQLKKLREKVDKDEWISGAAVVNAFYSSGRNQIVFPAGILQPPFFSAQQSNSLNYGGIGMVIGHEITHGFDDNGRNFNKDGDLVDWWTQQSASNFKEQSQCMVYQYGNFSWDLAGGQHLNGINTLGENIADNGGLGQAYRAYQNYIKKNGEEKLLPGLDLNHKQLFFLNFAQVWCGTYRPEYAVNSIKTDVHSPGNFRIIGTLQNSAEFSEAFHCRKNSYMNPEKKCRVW

melting point [°C] | IC50 [1] [nM] | selectivity for NEP over SEP [2] [fold] | Structure (SMILES)
127.5 to 129.5 |  |  | CCc1nc2ccc(CCCNC(=O)C3(CCC(=O)O)CCCC3)cc2s1 [Example 2, 3-(1-{[3-(2-ethyl-1,3-benzothiazol-6-yl)propyl]carbamoyl}cyclopentyl)propanoic acid]
105 to 106 | 1 | 1900 | Cc1nc2ccc(CCCNC(=O)C3(C[C@@H](C)C(=O)O)CCCC3)cc2s1 [Example 1, (R)-2-Methyl-3-(1-{[3-(2-methyl-1,3-benzothiazol-6-yl)propyl]carbamoyl}cyclopentyl)propanoic acid]
